Measured values: publication PMC12778052 (Science Advances, 2026)

Key:
[1] = 1.25 mg/kg dose level; cited from earlier work
Text: Focusing on EV, an FDA-approved ADC targeting Nectin-4 ([11]), we aimed to test whether PET-measured target engagement (TE) could better define the relationships among dose, exposure, and therapeutic response. […] Adjustments in the dosage were more ...

HT1376 tumors = assay: EV effect on Nectin-4 temporal PD, [^68Ga]AJ647 PET; assay type: in vivo, NSG mice
Description: Mice with tumor volumes of ~100 to 150 mm^3 were injected with ~200 μCi [7.4 megabecquerels (MBq)] of [^68Ga]AJ647 in […] of 5% ethanol in saline intravenously and anesthetized under 2.5% isoflurane. PET-computed tomography (CT) images were acquired at 60 min after radiotracer injection at 5 min per bed in an ARGUS small-animal PET/CT scanner (Sedecal, Madrid, Spain) as described previously (n = 3, unless otherwise noted). PET-MR images were acquired on a simultaneous 7T Bruker PET-MR scanner. Dynamic imaging was conducted to evaluate the PK of [^68Ga]AJ647. [^68Ga]AJ647 was injected (with the help of a catheter) after mice were anesthetized under 2.5% isoflurane on the equipment bed. All PET data were reconstructed using the two-dimensional (2D) ordered subset expectation maximization algorithm and corrected for radioactive decay and dead times. The SUV values were calculated by finding %IA on the basis of a calibration factor obtained from a known radioactive quantity and then normalizing by mice weight. Amide software was used to derive SUV values by drawing the region of interest to closely fit tumors. In particular, MR images were used to identify tumor boundaries manually; these boundaries were transferred to co-registered PET images to derive SUVs. This process was repeated for each mouse individually in a blinded fashion. For the change in accessible Nectin-4 following EV treatment, ΔSUV was calculated by subtracting baseline (pre-treatment) uptake from posttherapy uptake of [^68Ga]AJ647. TE was quantified by normalizing this change by initial SUV in the same subject controls. Image fusion, visualization, and 3D rendering were accomplished using Amira 2020.3.1 (FEI, Hillsboro, OR). The dose-time PD of Nectin-4 following EV treatment was studied at doses of 6, 9, and 15 mg/kg. Experiments involving PET imaging were performed first. Male NSG mice were inoculated with 4 million HT1376 cells at day 0. On day 23 (average tumor volume, 150 ± 30 mm^3), mice were randomized to receive either saline or a single dose of EV (6, 9, or 15 mg/kg) intravenously (n = 3 for each dose and n = 2 for saline). Mice (n = 2) from each dose group and saline group were imaged on days 1, 3, and 6 following EV treatment. Once PET imaging results were analyzed, ex vivo distribution experiment was performed with n = 16 to 18 for each dose and n = 10 for saline. Treated mice (n = 8 or 9 per dose per time point) along with saline controls (n = 5 per time point) were euthanized on days 1 and 6. Biodistribution studies were performed at 60 min after [^68Ga]AJ647 injection, as described above. PD metrics were defined as follows Accessible Nectin−4=SUVpost/SUVpre∗100 Nectin−4 TE=(SUVpre−SUVpost)/SUVpre∗100

mouse Nectin-4 = target: T1, mouse Nectin-4 (Mus musculus, UniProt Q8R007); assay: SPR affinity for recombinant mouse Nectin-4; assay type: binding; details: mouse Nectin-4
T1 construct: purchased R&D Systems 3116-N4-050
T1 sequence (Q8R007 31-347 limits assumed): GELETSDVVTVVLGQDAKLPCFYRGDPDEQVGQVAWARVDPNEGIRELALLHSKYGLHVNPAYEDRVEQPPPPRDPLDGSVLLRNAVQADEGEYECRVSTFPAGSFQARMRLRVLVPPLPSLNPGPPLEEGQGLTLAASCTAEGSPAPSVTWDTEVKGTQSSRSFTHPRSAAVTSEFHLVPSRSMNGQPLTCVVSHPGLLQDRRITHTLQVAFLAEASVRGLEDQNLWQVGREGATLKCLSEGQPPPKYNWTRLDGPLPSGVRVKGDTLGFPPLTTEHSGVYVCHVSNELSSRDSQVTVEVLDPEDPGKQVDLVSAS
Description: The affinity of AJ647 for human and mouse Nectin-4 recombinant proteins was evaluated by SPR. The experiments were conducted using a Biacore T200 instrument with a CM5 chip at 25°C. The ligands used were His-tagged human Nectin-4 (R&D Systems, catalog no. 2659-N4-050, 44 kDa, 0.2 mg/ml stock concentration) and mouse Nectin-4 proteins (R&D Systems, catalog no. 3116-N4-050, 45 kDa, 0.2 mg/ml stock concentration), which were immobilized onto the CM5 chip. AJ647 (3057.5 Da, 10 mM stock concentration) was used as the analyte, which flowed over the ligand-immobilized surface. FC2 and FC4 was used as the experimental flow cell, while FC1 and FC3 served as the reference. An anti-His antibody (1 mg/ml stock concentration) was immobilized on all flow cells using standard amine coupling chemistry. […] Human Nectin-4 was captured onto FC2 at a level of ~600 RU, with a 1:20 dilution and 10 μg/ml diluted concentration in PBS-P. Mouse Nectin-4 was captured onto FC4 at a level of 600 RU, with a 1:20 dilution and 10 μg/ml diluted concentration in PBS-P. The theoretical maximum response (Rmax ) values were calculated on the basis of the captured response values (table S1), assuming a 1:1 interaction mechanism. […] All association and dissociation kinetics were evaluated by 1:1 kinetics model fitting.

physchem = assay type: physicochemical; details: pH 7.4
Description: The logD (pH 7.4) value was determined according to a literature procedure ([32]). Briefly, a 10-μl solution of [^68Ga]AJ647 (around 10 μCi) was added to a solution of 1-octanol (200 μl) mixed with phosphate-buffered saline (PBS) (190 μl) in a 1.5-ml centrifuge tube. After the mixture was vigorously shaken and vortexed, it was centrifuged at 3000 rpm for 5 min. Aliquots (10 μl) were removed from both phases, and the radioactivity was measured on an automated gamma counter (1282 Compugamma CS, Pharmacia/LKB Nuclear Inc., Gaithersburg, MD). The logD was calculated as the average log ratio value of the radioactivity in the 1-octanol fraction and the PBS fraction from the three samples.

| Molecule | patients needing dosage adjustments [1] | Nectin-4 engagement by PET (HT1376 tumors; day 1, EV 6, 9 or 15 mg/kg single dose) | Nectin-4 engagement by PET (HT1376 tumors; day 3, EV 6 mg/kg) | Nectin-4 engagement by PET (HT1376 tumors; day 3, EV 9 and 15 mg/kg) | Nectin-4 engagement by PET (HT1376 tumors; day 6, EV 6 mg/kg) | Nectin-4 engagement by PET (HT1376 tumors; day 6, EV 9 mg/kg) | Nectin-4 engagement by PET (HT1376 tumors; day 6, EV 15 mg/kg) | koff (mouse Nectin-4) [s⁻¹] | logD (physchem) |
| --- | --- | --- | --- | --- | --- | --- | --- | --- | --- |
| enfortumab vedotin [EV] | more than 32% | full occupancy of Nectin-4 | increase in [^68Ga]AJ647 uptake | low tracer uptake | significant increase in [^68Ga]AJ647 uptake | moderate increase in uptake | minimal tracer uptake | – | – |
| CSCC[C@@H]1NC(=O)[C@@H]2CSCCC(=O)N3CN(CN(C3)C(=O)CCSC[C@H](NC(=O)CCOCCOCCOCCOCCOCCOCCOCCOCCOCCOCCOCCOCCNC(=O)CN3CCN(CC(=O)O)CCN(CC(=O)O)CC3)C(=O)N3CCC[C@H]3C(=O)N[C@@H](Cc3cccc4ccccc34)C(=O)N[C@@H](CC(=O)O)C(=O)N2)C(=O)CCSC[C@@H](C(N)=O)NC(=O)[C@H](Cc2c[nH]c3ccccc23)NC(=O)[C@@H]2C[C@@H](O)CN2C(=O)[C@@H]2CCCN2C(=O)[C@H]([C@@H](C)O)NC(=O)[C@H](CO)NC(=O)[C@H](Cc2c[nH]c3ccccc23)NC(=O)[C@@H](CC(=O)O)NC(=O)[C@H](CCCCNC(=N)N)NC1=O [[^68Ga]AJ647, metal not drawn] | – | – | – | – | – | – | – | 0.0101 ± 0.00295 | -2.06 ± 0.17 |
